“And” between values parts separate entries of the source, which are not always exact repeats. Equal entries are not always repeated. Structures can show the parent of a compound that is named as a salt. Where two headings read alike, the source gives them in different places.
Assays:
[1] = system: K562; test: Proliferation assay (spheroid assay) K562 control cell line; assay type: cell-based; details: Homo sapiens
Description: (§1) The anti-proliferative effect of menin/MLL protein/protein interaction inhibitor test compounds was assessed in human leukemia cell lines. The cell lines MV-4-11 and MOLM14 harbor MLL translocations and express the MLL fusion proteins MLL-AF4 and MLL-AF9, respectively, as well as the wildtype protein from the second allele. […] K562 and KG1 were used as a control cell lines containing two MLL wildtype alleles in order to exclude compounds that display general cytotoxic effects.
(§2) MV-4-11 and MOLM14 were cultured in RPMI-1640 (Sigma Aldrich) supplemented with 10% fetal bovine serum (HyClone), 2 mM L-glutamine (Sigma Aldrich) and 50 μg/ml gentamycin (Gibco). K562 were propagated in RPMI-1640 (Sigma Aldrich) supplemented with 20% fetal bovine serum (HyClone), 2 mM L-glutamine (Sigma Aldrich) and 50 μg/ml gentamycin (Gibco). KG1 were cultured in Iscove's MDM (Gibco) supplemented with 20% fetal bovine serum (HyClone), 2 mM L-glutamine (Sigma Aldrich) and 50 μg/ml gentamycin (Gibco).
(§3) In order to assess the anti-proliferative effects, 1,500 MV-4-11, 300 MOLM14, 750 K562 or 1,300 KG1 cells were seeded in 200 μl media per well in 96-well round bottom, ultra-low attachment plates (Costar, catalogue number 7007). Cell seeding numbers were chosen based on growth curves to ensure linear growth throughout the experiment. Test compounds were added at different concentrations and the DMSO content was normalized to 0.3%. Cells were incubated for 8 d at 37° C. and 5% CO2. Spheroid like growth was monitored in real-time by live-cell imaging (IncuCyteZOOM, Essenbio, 4× objective) acquiring one image every four hours for 8 d. Confluence (%) as a measure of spheroid size was determined using an integrated analysis tool.
(§4) In order to determine the cumulative effect of the test compounds over time, the area under the curve (AUC) in a plot of confluence against time was calculated. Confluence at the beginning of the experiment (t=0) was used as baseline for the AUC calculation.
(§5) Absolute IC50 values were calculated according to the following procedure: % Control=(AUC sample/AUC control)*100
(§6) AUC control=mean AUC of control values (cells without compound/DMSO as vehicle control)
(§7) A non-linear curve fit was applied using the least squares (ordinary) fit method to the plot of % control versus compound concentration. Based on this, the absolute IC50 value (half maximal inhibitory concentration of the test compound causing an anti-proliferative effect of 50% relative to the vehicle control) was calculated.

[2] = system: MV-4-11; test: Proliferation assay (spheroid assay) MV-4-11; assay type: cell-based, human
Procedure, shortened: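 Cells were grown as spheroids in ultra-low attachment round-bottom wells with compound (0.3% DMSO) for 8 d at 37 °C, imaged every 4 h, with confluence as spheroid size. AUC of confluence versus time (t=0 baseline) was expressed as % of DMSO control, and absolute IC50 came from a least-squares nonlinear fit.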

[3] = target: T1, Menin/MLL (terbium chelate-labeled menin, FITC-MBM1 peptide) (Homo sapiens, UniProt O00255, T541A); test: Menin/MLL homogenous time-resolved fluorescence (HTRF) assay; assay type: binding
T1 construct: Menin (a.a. 1-610-6×his tag) was labeled with terbium cryptate as follows
T1 sequence (O00255 with tags, fused parts or gaps T541A): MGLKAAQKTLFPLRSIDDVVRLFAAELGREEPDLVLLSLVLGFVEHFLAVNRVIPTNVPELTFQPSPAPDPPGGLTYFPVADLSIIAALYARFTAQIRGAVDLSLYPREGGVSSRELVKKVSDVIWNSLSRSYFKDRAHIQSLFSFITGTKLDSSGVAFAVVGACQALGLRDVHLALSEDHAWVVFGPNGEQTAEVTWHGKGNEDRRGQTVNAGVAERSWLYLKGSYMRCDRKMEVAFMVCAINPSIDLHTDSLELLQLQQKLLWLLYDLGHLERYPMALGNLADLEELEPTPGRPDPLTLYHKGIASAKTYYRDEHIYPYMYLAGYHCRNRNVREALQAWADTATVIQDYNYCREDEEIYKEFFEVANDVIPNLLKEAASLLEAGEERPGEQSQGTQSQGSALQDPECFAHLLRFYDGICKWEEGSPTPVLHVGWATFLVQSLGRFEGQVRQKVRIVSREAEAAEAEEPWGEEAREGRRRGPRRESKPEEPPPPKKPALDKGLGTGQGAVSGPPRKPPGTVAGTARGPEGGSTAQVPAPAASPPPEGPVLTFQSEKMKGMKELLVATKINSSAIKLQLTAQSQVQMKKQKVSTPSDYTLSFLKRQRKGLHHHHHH
Procedure, shortened: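 Compound preincubated 5 min with terbium-cryptate-labeled menin (aa 1-610, His-tagged; 100 pM final), then 75 nM FITC-MBM1 peptide added, 15 min at ambient temperature; 0.5% DMSO, Tris pH 7.5 buffer. HTRF ratio 520/490 nm; % inhibition vs saturating competitor, IC50 from 11-point three-fold titration from 31 μM.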

[4] = system: MOLM14; test: Proliferation assay (spheroid assay) MOLM14; assay type: cell-based, human; details: Homo sapiens
Description: as §1, §2, §3, §4, §5, §6, §7

[5] = target: T2, Menin/MLL (menin, FITC-MBM1 peptide) (Homo sapiens, UniProt O00255, T541A); test: Menin/MLL fluorescence polarization (FP) assay; assay type: binding; details: averaged values over all measurements; read-out: Menin FP assay (IC50)
T2 construct: 6xHis (C)
T2 sequence (O00255 with tags, fused parts or gaps T541A): T1 sequence (O00255 with tags, fused parts or gaps T541A)
Description: Pharmacological Part 1) Menin/MLL Fluorescence Polarization Assay
To a non-surface binding, black 384-well microtiter plate was added 50 nL 160× test compound in DMSO and 4 μL 2× menin in assay buffer (40 mM Tris-HCl, pH 7.5, 50 mM NaCl, 1 mM DTT and 0.001% Tween 20). After incubation of test compound and menin for 10 min at ambient temperature, 4 μL 2×FITC-MBM1 peptide (FITC-β-alanine-SARWRFPARPGT-NH2) in assay buffer was added, the microtiter plate centrifuged at 1000 rpm for 1 min and the assay mixtures incubated for 15 min at ambient temperature. The relative amount of menin: FITC-MBM1 complex present in an assay mixture is determined by measuring the fluorescence polarization (FP) of the FITC label with a BMG Pherastar plate reader (ex. 485 nm/em. 520 nm) at ambient temperature. The final concentrations of reagents in the binding assay are 100 nM menin, 5 nM FITC-MBM1 peptide and 0.625% DMSO in assay buffer. Dose-response titrations of test compounds are conducted using an 11 point, three-fold serial dilution scheme, starting at 31 μM.
Compound potencies were determined by first calculating % inhibition at each compound concentration according to equation 1: % inhibition=((HC−LC)−(FP^compound−LC))/(HC−LC))*100 (Eqn 1)
Where LC and HC are the FP values of the assay in the presence or absence of a saturating concentration of a compound that competes with FITC-MBM1 for binding to menin, and FP^compound is the measured FP value in the presence of the test compound. HC and LC FP values represent an average of at least 16 replicates per plate.
Where Bottom and Top are the lower and upper asymptotes of the dose-response curve, respectively, IC50 is the concentration of compound that yields 50% inhibition of signal and h is the Hill coefficient.

[6] = system: KG1; test: Proliferation assay (spheroid assay) KG1 control cell line; assay type: cell-based; details: Homo sapiens, KG-1, averaged values over all measurements
Description: as §1, §2, §3, §4, §5, §6, §7

[7] = K562 control cell line, averaged values over all measurements, read-out: Spheroid assay K562 (IC50)
[8] = averaged values over all measurements, read-out: Menin HTRF assay (IC50)
[9] = MOLM-14, MOLM14, averaged values over all measurements, read-out: Spheroid assay MOLM14 (IC50)
[10] = Homo sapiens, MV4-11, MV-4-11, averaged values over all measurements, read-out: Spheroid assay MV-4-11 (IC50)

| Compound | melting point | IC50 [1, 7] | IC50 [3, 8] | IC50 [4, 9] | IC50 [2, 10] | also measured |
| --- | --- | --- | --- | --- | --- | --- |
| O=S(=O)(c1ccccc1)N1CC[C@@H]2CN(c3ncnc4sc(CC(F)(F)F)cc34)CC[C@@H]21 (as salt: HCl) (hydrate or solvate) [Compound 16] | 152 °C | – | – | – | – | – |
| FC(F)(F)Cc1cc2c(N3CCC4C(CCN4Cc4ncc[nH]4)C3)ncnc2s1 (stereo not shown) (as salt: HCl) [Compound 22] | 140 °C | – | – | – | – | – |
| CC(C)CN1CCC2CN(c3ncnc4sc(CC(F)(F)F)cc34)CCC21 (stereo not shown) (as salt: HCl) [Compound 25] | 140 °C | – | – | – | – | – |
| [2H]C([2H])(c1ccccc1)N1CC[C@@H]2CN(c3ncnc4sc(CC(F)(F)F)cc34)CC[C@@H]21 (single isomer, unassigned) [Compound 5] | – | – | – | – | – | IC50 ([1]; 192 h, K562, 8 d, individual measurements (not averaged), read-out: (2) Spheroid assay K562 (IC50 (μM))): > 15 µM; IC50 ([2]; MV-4-11, 8 d, individual measurements (not averaged), read-out: (2) Spheroid assay MV-4-11 (IC50 (μM))): 2.1 µM and > 15 µM; IC50 ([3]; individual measurements (not averaged), read-out: (3) Menin HTRF assay (IC50 (nM))): 9 nM; IC50 ([4]; MOLM-14, 192 h, MOLM14, 8 d, individual measurements (not averaged), read-out: (2) Spheroid assay MOLM14 (IC50 (μM))): 4.3 µM |
| Fc1ccccc1CN1CC[C@@H]2CN(c3ncnc4sc(CC(F)(F)F)cc34)CC[C@@H]21 (single isomer, unassigned) [Compound 7] | – | > 15 µM | 510 nM | 14.6 µM | – | IC50 [5]: 630 nM |
| CC(C)(C)OC(=O)N1CCC(CN2CC[C@@H]3CN(c4ncnc5sc(CC(F)(F)F)cc45)C[C@@H]3C2)CC1 (single isomer, unassigned) [Compound 20] | – | > 15 µM | 31 nM | 0.98 µM | 0.38 µM | – |
| FC(F)(F)Cc1cc2c(N3C[C@@H]4CCN(Cc5ccccc5)C[C@@H]43)ncnc2s1 (single isomer, unassigned) [Compound 30] | 140 °C | – | ~1260 nM | – | – | – |
| FC(F)(F)Cc1cc2c(N3C[C@H]4CCN(Cc5ccccc5)C[C@H]43)ncnc2s1 (single isomer, unassigned) [Compound 31] | 150 °C | – | 1080 nM | – | – | – |
| CC(C)CN1CC[C@@H]2CN(c3ncnc4sc(CC(F)(F)F)cc34)C[C@@H]2C1 (single isomer, unassigned) [Compound 36] | – | > 15 µM | 15 nM | 1.4 µM | 0.22 µM | IC50 [6]: > 15000 nM |
| FC(F)(F)Cc1cc2c(N3C[C@H]4CCN(Cc5ccncc5)C[C@H]4C3)ncnc2s1 (single isomer, unassigned) [Compound 64] | – | – | 25 nM | 0.77 µM | 0.55 µM | IC50 [6]: 8400 nM |
| O=c1ccc(CN2CC[C@@H]3CN(c4ncnc5sc(CC(F)(F)F)cc45)C[C@@H]3C2)c[nH]1 (single isomer, unassigned) [Compound 67] | – | – | 27 nM | 3.2 µM | 0.32 µM | IC50 [6]: > 15000 nM |
| CC(C)CN1CC[C@H]2CN(c3ncnc4sc(CC(F)(F)F)cc34)C[C@H]2C1 (single isomer, unassigned) [Compound 69] | 109 °C | – | 57 nM | – | 1.8 µM | – |
| FC(F)(F)Cc1cc2c(N3C[C@H]4CCN(CC5CCNCC5)C[C@H]4C3)ncnc2s1 (single isomer, unassigned) [Compound 70B] | – | > 15 µM | 24 nM | 2 µM | 0.28 µM | – |
| FC(F)(F)Cc1cc2c(N3C[C@H]4CCN(CC5CCOCC5)C[C@H]4C3)ncnc2s1 (single isomer, unassigned) [Compound 70] | 160 °C | > 15 µM | 18 nM | 1.4 µM | 0.56 µM | IC50 [6]: > 15000 nM |
| Cn1cc(CN2CC[C@H]3CN(c4ncnc5sc(CC(F)(F)F)cc45)C[C@H]3C2)cn1 (single isomer, unassigned) [Compound 71B] | – | > 15 µM | 54 nM | 2.2 µM | 0.42 µM | IC50 [6]: > 15000 nM |
| O=C([C@@H]1CC2(CC2)CN1)N1CC[C@@H]2CN(c3ncnc4sc(CC(F)(F)F)cc34)C[C@@H]2C1 (single isomer, unassigned) [Compound 81] | 112 °C | – | 410 nM | – | 5.7 µM | – |
| O=C([C@@H]1CC2(CC2)CN1)N1CC[C@H]2CN(c3ncnc4sc(CC(F)(F)F)cc34)C[C@H]2C1 (single isomer, unassigned) [Compound 82] | 105 °C | – | 653 nM | – | 7.9 µM | – |
| FC(F)(F)Cc1cc2c(N3C[C@@H]4CN(Cc5ccccc5)C[C@@H]43)ncnc2s1 [Compound 29] | 134 °C | – | 3450 nM | – | – | – |
